# Experimental data published in article PMC8121805, “Discovery of first-in-class inhibitors of ASH1L histone methyltransferase with anti-leukemic activity” (Nature Communications, 2021).
# “And” between values parts separate entries of the source, which are not always exact repeats. Identical values can stand only once.
# Legend:
# Type in all cases: cell-based, human
# [1] = tested on: MOLM13 cells; test: MTT cell viability assay; details: Fig S7b
# Protocol: (§1) FBS and 1% penicillin/streptomycin. […] Media was changed on day 3 or 4 and compounds were resupplied. […] Cell suspensions (100 μL) were transferred to the 96-well plates for each sample in quadruplicate at the time of media change. At day 7, 10 µL of MTT reagent (M6494, Molecular Probes™) was added to each well of the 96 well plate and incubated at 37 °C for 4 h. The formazan was then solubilized by adding 100 µL acidified 10% SDS solution and incubated at 37 °C overnight. Plates were read for absorbance at 570 nm using a PHERAstar BMG microplate reader. The experiments were performed two times in quadruplicates with calculation of mean and SD for each condition. Data were analyzed in Prism 8.0.0 to obtain GI50 values.
# (§2) Supplementary Figure 7. […] (a)
# (§3) Titration curves from the MTT cell viability assay performed after 4, 7, and 11 (or 10) days of
# (§4) Titration curves from the MTT cell viability assay performed after 7 days of treatment of KOPN8 ,
# (§5) MOLM13 and MV4;11 cell lines harboring MLL1 translocation (MLL1-r) or K562 cell line (non-
# (§6) Representative graphs are shown
# (§7) from two independent MTT experiments performed for each cell line.
# [2] = tested on: MV4;11 cells; test: MTT cell viability assay; details: for MV4;11 % activity: Fig S7a
# Protocol: as §1, §2, §3, §4, §5, §6, §7
# [3] = tested on: K562 cells; test: MTT cell viability assay; details: for % activity: Fig S7b
# Protocol: (§8) Human leukemia cells K562, MV4;11 and RS4;11 (purchased from ATCC) and KOPN8, MOLM13 (purchased from DSMZ) were cultured in RPMI 1640 (Invitrogen) supplemented with 10% heat inactivated (h.i.) FBS and 1% penicillin/streptomycin (Invitrogen). SET2 cells (purchased from DSMZ) were cultured in RPMI 1640 supplemented with 20% h.i. FBS and 1% penicillin/streptomycin. Cells were plated at 1 × 10^5 to 2 × 10^5 cells/mL depending on cell line and treated with 0.25% DMSO or varying concentrations of compounds and incubated at 37 °C, 5% CO2 incubator for 7 days. Media was changed on day 3 or 4 and compounds were resupplied. […] Cell suspensions (100 μL) were transferred to the 96-well plates for each sample in quadruplicate at the time of media change. At day 7, 10 µL of MTT reagent (M6494, Molecular Probes™) was added to each well of the 96 well plate and incubated at 37 °C for 4 h. The formazan was then solubilized by adding 100 µL acidified 10% SDS solution and incubated at 37 °C overnight. Plates were read for absorbance at 570 nm using a PHERAstar BMG microplate reader. The experiments were performed two times in quadruplicates with calculation of mean and SD for each condition. Data were analyzed in Prism 8.0.0 to obtain GI50 values.
# as §2, §3, §4, §5, §6
# (§9) from two independent MTT experiments performed for each cell line. GI50 values correspond to […]
# [4] = tested on: KOPN8 cells; test: MTT cell viability assay; details: Fig S7a
# Protocol: as §8, §2, §3, §4, §5, §6, §9
# [5] = tested on: MLL leukemia cells (MV4;11, MOLM13, KOPN8, RS4;11); test: MTT cell viability assay, MLL leukemia cells as a group; details: Homo sapiens, MLL leukemia cells
# Protocol: as §8
# Supplementary Figure 4. Cell viability assay for AS-6 in MLL leukemia cell lines. Titration curves from the MTT cell viability assay performed after 7 days of treatment of human MLL1- […]
# replicates. Representative graphs are shown from two independent MTT experiments performed […]
# as §2
# Titration curves from the MTT cell viability assay performed after 4, 7, and 11 (or 10) days of […]
# Titration curves from the MTT cell viability assay performed after 7 days of treatment of KOPN8 , MOLM13 and MV4;11 cell lines harboring MLL1 translocation (MLL1-r) or K562 cell line (non- […]
# Representative graphs are shown from two independent MTT experiments performed for each cell line. GI50 values correspond to […]
compound,measurement,setting,value
NC(=S)c1cccc(-c2cn(C3CCN(S(=O)(=O)C(F)(F)F)CC3)c3cc(CNC(=O)C4CNC4)ccc23)c1 [AS-85],% activity,"[1]; MOLM-13, log[AS-85] -4.60206",46.6646% and 47.2766% and 46.175% and 47.0318%
same,% activity,"[1]; MOLM-13, log[AS-85] -4.90309",81.426% and 94.7674% and 77.6316% and 82.4051%
same,% activity,"[1]; MOLM-13, log[AS-85] -5.20412",87.0563% and 95.9914% and 92.6867% and 98.1946%
same,% activity,"[1]; MOLM-13, log[AS-85] -5.50515",82.6499% and 85.9547% and 94.1555% and 88.7699%
same,% activity,"[1]; MOLM-13, log[AS-85] -5.80618",80.9364% and 84.3635% and 82.1603% and 93.6659%
same,% activity,"[1]; MOLM-13, log[AS-85] -6.10721",97.5826% and 103.213% and 93.6659% and 105.539%
same,% activity,"[1]; MOLM-13, log[AS-85] -6.40824",70.6548% and 70.0428% and 76.1628% and 72.1236%
same,MV4;11 % activity,"[2]; log[AS-85] -4.60206, d4",15.9329% and 16.3522% and 18.0892% and 16.4121%
same,MV4;11 % activity,"[2]; log[AS-85] -4.60206, d7",5.045% and 5.128% and 5.211%
same,MV4;11 % activity,"[2]; log[AS-85] -4.60206, d11",1.161% and 1.032% and 1.118%
same,MV4;11 % activity,"[2]; log[AS-85] -4.90309, d4",70.8595% and 67.0859% and 71.758% and 64.1509%
same,MV4;11 % activity,"[2]; log[AS-85] -4.90309, d7",25.0571% and 25.9705% and 23.8115% and 22.3998%
same,MV4;11 % activity,"[2]; log[AS-85] -4.90309, d11",9.6743% and 10.0613% and 9.029% and 8.943%
same,MV4;11 % activity,"[2]; log[AS-85] -5.20412, d4",102.965% and 99.1914% and 99.9102% and 86.1336%
same,MV4;11 % activity,"[2]; log[AS-85] -5.20412, d7",53.1243% and 51.7127% and 52.7922% and 54.6191%
same,MV4;11 % activity,"[2]; log[AS-85] -5.20412, d11",37.1063% and 36.8053% and 36.9343% and 41.621%
same,MV4;11 % activity,"[2]; log[AS-85] -5.50515, d4",92.5427% and 88.3498% and 97.8736% and 88.7691%
same,MV4;11 % activity,"[2]; log[AS-85] -5.50515, d7",76.7075% and 69.8983% and 73.8011% and 68.8188%
same,MV4;11 % activity,"[2]; log[AS-85] -5.50515, d11",72.8797% and 78.2113% and 64.4953% and 71.1168%
same,MV4;11 % activity,"[2]; log[AS-85] -5.80618, d11",77.7384% and 83.5429% and 90.8524%
same,MV4;11 % activity,"[2]; log[AS-85] -6.10721, d4",94.4594% and 94.1599% and 94.5792% and 108.955%
same,MV4;11 % activity,"[2]; log[AS-85] -6.10721, d7",101.951% and 92.1528% and 106.186% and 104.11%
same,MV4;11 % activity,"[2]; log[AS-85] -6.10721, d11",89.8205% and 93.8192% and 105.127% and 95.5821%
same,MV4;11 % activity,"[2]; log[AS-85] -6.40824, d4",98.1731% and 105.9% and 87.9305% and 107.996%
same,MV4;11 % activity,"[2]; log[AS-85] -6.40824, d7",98.879% and 95.8896% and 100.374% and 104.858%
same,MV4;11 % activity,"[2]; log[AS-85] -6.40824, d11",115.404% and 96.872% and 95.3671% and 92.3573%
same,% activity,"[2]; Fig S7b, MV4;11, log[AS-85] -5.80618",90.492% and 84.4301% and 90.3259% and 90.8242%
same,% activity,"[3]; K562, log[AS-85] -4.60206",94.8724% and 99.1495% and 96.3791% and 94.0462%
same,% activity,"[3]; K562, log[AS-85] -4.90309",126.464% and 120.486% and 116.938% and 123.451%
same,% activity,"[3]; K562, log[AS-85] -5.20412",111.154% and 105.225% and 103.767% and 109.259%
same,% activity,"[3]; K562, log[AS-85] -5.50515",104.836% and 103.329% and 104.35% and 109.745%
same,% activity,"[3]; K562, log[AS-85] -5.80618",94.1434% and 95.2126% and 95.6501% and 103.183%
same,% activity,"[3]; K562, log[AS-85] -6.10721",95.2612% and 103.524% and 101.142% and 100.073%
same,% activity,"[3]; K562, log[AS-85] -6.40824",94.0462% and 95.8931% and 100.705% and 97.4484%
same,effect on growth/proliferation of K562 cells,[3]; leukemia cells without MLL1 translocations,no effect
same,KOPN8 % activity,"[4]; log[AS-85] -4.60206, d4",16.3539% and 14.6687% and 8.541% and 8.847%
same,KOPN8 % activity,"[4]; log[AS-85] -4.60206, d7",5.4864%
same,KOPN8 % activity,"[4]; log[AS-85] -4.60206, d10",12.6028% and 11.8131% and 12.208%
same,KOPN8 % activity,"[4]; log[AS-85] -4.90309, d4",78.3991% and 80.3907% and 79.1651% and 80.3906%
same,KOPN8 % activity,"[4]; log[AS-85] -4.90309, d7",47.9023% and 50.2997% and 49.1932% and 51.4062%
same,KOPN8 % activity,"[4]; log[AS-85] -4.90309, d10",23.001% and 25.765% and 16.1566% and 29.977%
same,KOPN8 % activity,"[4]; log[AS-85] -5.20412, d4",76.2543% and 85.293% and 81.9226% and 91.2677%
same,KOPN8 % activity,"[4]; log[AS-85] -5.20412, d7",72.4297% and 74.2739% and 78.5154% and 71.5076%
same,KOPN8 % activity,"[4]; log[AS-85] -5.20412, d10",57.6176% and 47.8776% and 61.0398% and 75.3866%
same,KOPN8 % activity,"[4]; log[AS-85] -5.50515, d4",81.7694% and 85.9058% and 95.8637% and 96.7828%
same,KOPN8 % activity,"[4]; log[AS-85] -5.50515, d7",82.5726% and 92.5311% and 77.2245% and 78.5154%
same,KOPN8 % activity,"[4]; log[AS-85] -5.50515, d10",103.817% and 88.6805% and 64.9885% and 80.7832%
same,KOPN8 % activity,"[4]; log[AS-85] -5.80618, d4",78.2459% and 90.8081% and 100.766% and 94.0253%
same,KOPN8 % activity,"[4]; log[AS-85] -5.80618, d7",80.7284% and 79.9908% and 94.5597% and 75.0115%
same,KOPN8 % activity,"[4]; log[AS-85] -5.80618, d10",93.8137% and 85.6532% and 79.9934% and 79.7302%
same,KOPN8 % activity,"[4]; log[AS-85] -6.10721, d4",86.825% and 91.4209% and 95.8637% and 91.5741%
same,KOPN8 % activity,"[4]; log[AS-85] -6.10721, d7",99.9078% and 107.284% and 86.6298% and 85.5233%
same,KOPN8 % activity,"[4]; log[AS-85] -6.10721, d10",118.032% and 101.579% and 87.2326% and 93.1556%
same,KOPN8 % activity,"[4]; log[AS-85] -6.40824, d4",98.6212% and 103.37% and 102.911% and 95.0977%
same,KOPN8 % activity,"[4]; log[AS-85] -6.40824, d7",100.461% and 105.072% and 99.7234% and 94.7441%
same,KOPN8 % activity,"[4]; log[AS-85] -6.40824, d10",81.3096% and 91.971% and 84.7318% and 80.9148%
same,GI50,[5],5 to 25 µM
